Residue numbers refer to the chain shown, from its start.

The target of assay [1] is T1, STAT5b Arg566Trp/Gln636Pro/Met639Asn/Phe640Leu/Met644Lys/Asn664Ser/Tyr679Phe (STAT5b‐7M) (Homo sapiens, UniProt P51692, F640L/M639N/M644K/N664S/Q636P/R566W/Y679F).
T1 construct: made in house
T1 sequence (P51692 1-787 R566W/Q636P/M639N/F640L/M644K/N664S/Y679F): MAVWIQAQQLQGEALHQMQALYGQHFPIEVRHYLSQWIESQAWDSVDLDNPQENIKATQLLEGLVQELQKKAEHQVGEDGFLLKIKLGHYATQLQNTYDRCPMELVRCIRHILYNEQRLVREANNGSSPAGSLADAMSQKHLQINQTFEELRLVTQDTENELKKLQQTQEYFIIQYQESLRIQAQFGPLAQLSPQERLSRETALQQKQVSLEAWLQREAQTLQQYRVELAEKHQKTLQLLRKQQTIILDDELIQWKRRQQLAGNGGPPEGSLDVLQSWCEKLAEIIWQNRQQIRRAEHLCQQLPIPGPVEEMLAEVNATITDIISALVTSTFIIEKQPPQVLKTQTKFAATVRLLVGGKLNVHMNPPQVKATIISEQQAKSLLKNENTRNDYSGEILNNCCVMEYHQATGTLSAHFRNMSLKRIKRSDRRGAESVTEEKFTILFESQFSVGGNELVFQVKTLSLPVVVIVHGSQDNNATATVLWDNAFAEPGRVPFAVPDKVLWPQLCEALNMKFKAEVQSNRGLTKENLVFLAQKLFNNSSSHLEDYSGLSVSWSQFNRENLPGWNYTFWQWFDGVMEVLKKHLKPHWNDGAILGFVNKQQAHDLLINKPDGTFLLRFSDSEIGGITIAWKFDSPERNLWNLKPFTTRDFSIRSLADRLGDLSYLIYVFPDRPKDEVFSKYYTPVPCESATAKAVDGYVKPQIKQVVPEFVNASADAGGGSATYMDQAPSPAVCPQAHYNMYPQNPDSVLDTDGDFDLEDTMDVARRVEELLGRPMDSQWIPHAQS
Nature of the assay: Fluorescence polarization assay, mutant STAT5b-7M. Conditions: FP assay. In kind it is binding. In general terms: Polarisation of emitted light reports the rotation of a fluorescent probe.

Another assay concerns the target STAT3 (Homo sapiens, UniProt P40763). Nature of the assay: Fluorescence polarization competitive binding assay, STAT3 SH2 domain. Conditions: read-out: STAT3 inhibition at 200 μM.
Assay [2] concerns the target T2, STAT5b Arg566Trp/Met639Asn/Met644Lys (STAT5b‐3M) (Homo sapiens, UniProt P51692, M639N/M644K/R566W).
T2 construct: made in house
T2 sequence (P51692 1-787 R566W/M639N/M644K): T1 sequence (P51692 1-787 R566W/Q636P/M639N/F640L/M644K/N664S/Y679F) with P636Q, L640F, S664N, F679Y
Kind of assay: Fluorescence polarization assay, triple mutant STAT5b-3M. In kind it is binding.

The next assay deals with T3, STAT5b (Homo sapiens, UniProt P51692).
T3 construct: made in house
T3 sequence (P51692 1-787): T1 sequence (P51692 1-787 R566W/Q636P/M639N/F640L/M644K/N664S/Y679F) with W566R, P636Q, N639M, L640F, K644M, S664N, F679Y
Kind of assay: Fluorescence polarization competitive binding assay, STAT5b. Conditions: read-out: STAT5b inhibition at 200 μM.

Chain of STAT3 (P40763 whole entry, species assumed, the tested form may be a part): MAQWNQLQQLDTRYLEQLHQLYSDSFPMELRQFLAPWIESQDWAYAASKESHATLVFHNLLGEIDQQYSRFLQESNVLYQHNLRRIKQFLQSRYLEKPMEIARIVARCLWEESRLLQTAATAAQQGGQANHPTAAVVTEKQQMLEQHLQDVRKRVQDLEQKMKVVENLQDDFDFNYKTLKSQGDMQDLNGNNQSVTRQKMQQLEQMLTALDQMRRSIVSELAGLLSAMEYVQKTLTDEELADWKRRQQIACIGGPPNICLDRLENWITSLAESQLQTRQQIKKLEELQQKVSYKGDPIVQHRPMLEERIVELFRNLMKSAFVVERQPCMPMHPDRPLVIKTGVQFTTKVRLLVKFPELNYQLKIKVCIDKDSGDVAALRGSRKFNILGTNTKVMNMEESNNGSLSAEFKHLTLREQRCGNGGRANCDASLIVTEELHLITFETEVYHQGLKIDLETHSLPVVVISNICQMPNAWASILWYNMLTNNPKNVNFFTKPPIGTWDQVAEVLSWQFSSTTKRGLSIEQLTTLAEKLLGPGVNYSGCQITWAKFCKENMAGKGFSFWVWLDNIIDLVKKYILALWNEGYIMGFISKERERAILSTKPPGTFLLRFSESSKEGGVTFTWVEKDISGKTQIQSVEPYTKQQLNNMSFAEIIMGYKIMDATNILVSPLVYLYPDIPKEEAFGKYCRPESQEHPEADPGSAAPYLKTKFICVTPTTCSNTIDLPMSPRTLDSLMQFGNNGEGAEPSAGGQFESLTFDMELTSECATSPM
From the text for STAT3: Expression and purification of STAT1, STAT3, STAT4, STAT5a, STAT5b, STAT5a Trp566Arg, STAT5b Arg566Trp, STAT5b 6M, STAT5b 7M, STAT6, and Lck have previously been described.[4, 12] STAT proteins were purified over a single His-Bind resin (Millipore) column.
Wild-type and mutant STAT5a/b proteins used for activity analysis of 20 were purified over two successive His-Bind resin columns.[4, 13]
Fluorescence Polarization assays
Competitive binding assays based on fluorescence polarization were essentially carried out as described.[14] Unless stated otherwise, the following final concentration of proteins were used:
STAT4; 105 nM for STAT6; 30 nM for Lck. Final concentration of all peptides: 10 nM. Peptides used: 5-carboxyfluorescein-GpYLVLDKW for STAT5a/b and point mutants thereof; 5-carboxyfluorescein-GpYLPQTV-NH2 for STAT3; 5-carboxyfluorescein-GpYDKPHVL for STAT1; 5-carboxyfluorescein-GpYLPQNID-OH for STAT4; 5-carboxyfluorescein-
analysis of 20 against wild-type (wt) STAT5a/b and STAT5a/b point mutants, the following concentrations of double-purified protein were used, which reflect the approximate Kd values of the interactions with 5-carboxyfluorescein-GpYLVLDKW: STAT5a wt: 147 nM; STAT5b wt:
STAT5b 6M: 80 nM; STAT5b 7M: 282 nM. Assay buffer: 10 mM Tris (pH 8.0), 50 mM NaCl, 1 mM EDTA, 1 mM DTT, 0.1 % Nonidet P-40 substitute, and 2 % DMSO in water. A major part of the pipetting was done using a Biomek FXp sceening robot (Beckman-Coulter). Protein and test compounds were incubated for 1 h, followed by addition of the fluorescein-labeled peptide.
Fluorescence polarization was measured after another hour using an Infinite F500 plate reader (Tecan). IC50 values were converted to Ki-values using the published equation.[15]

Consider `COc1cc(-c2cc(OP(=O)(O)O)cc(-c3cc(OC)c(OC)c(OC)c3)c2)cc(OC)c1OC` [Compound 20], for which the IC50 in assay [1] was 42.6 ± 8.8 µM; in assay [2] (FP assay), 101 ± 11 µM. Further, the Ki in assay [1] was 21.1 ± 4.4 µM; in assay [2] (FP assay), 49 ± 5.4 µM. Besides, the inhibition at 200 µM amounted to 27 ± 2% on STAT3 and 37 ± 5% on STAT5b. For the same compound, the “activity gap between STAT5b-3M and STAT5b-7M” value in assay [2] (FP assays) was 2.5 fold.

For orientation: IC50 means the concentration that inhibits the measured activity by half. A lower IC50 goes with greater potency. Usually Ki stands for the equilibrium dissociation constant of an inhibitor or competing ligand from its target. Higher therefore signals lower affinity. Broadly, the inhibition is how much of the control response was suppressed.

These data come from publication PMC6973011, “Stafia‐1: a STAT5a‐Selective Inhibitor Developed via Docking‐Based Screening of in Silico O‐Phosphorylated Fragments” (Chemistry (Weinheim an Der Bergstrasse, Germany), 2019).
